Counter-ions that a name gives are not always drawn.
What was measured:
[1] = system: subjects undergoing bunionectomy; assay: Postsurgical opioid consumption, opioid-free subjects and time to first opioid rescue, clinical trial #1; format: in vivo, human
Description: Clinical Study #1 was a Phase 3, multicenter, randomized, double-blind, active-controlled study in 180 subjects undergoing bunionectomy. Subjects received a sciatic (in the popliteal fossa) nerve block with a single dose of either […] 266 mg ([…] 133 mg (EXP133), or 0.25% bupivacaine HCl (50 mg; BUP50). The study was conducted in two parts (Part A and Part B). Part A was to be completed and analyzed before enrollment in Part B was initiated. Part A was a 3-arm cohort with 66 subjects undergoing bunionectomy to obtain information on pharmacokinetics (PK), pharmacodynamics (PD), efficacy, and safety. Subjects were randomized (1:1:1) to the EXP266, EXP133, and BUP50 treatment arms. Part B was a 2-arm cohort with 119 subjects undergoing bunionectomy to evaluate the efficacy and safety of […] compared with bupivacaine HCl. The dose of the […] arm in Part B was determined based on the interim analysis of the Part A cohort results. On the day of surgery, subjects received an ultrasound-guided sciatic (in the popliteal fossa) nerve block with one of the following treatments: • EXP266 arm: subjects randomized to this treatment arm received 20 mL (266 mg) […] mixed with 10 mL saline (Part A only; per interim analysis was not selected for Part B) • EXP133 arm: subjects randomized to this treatment arm received 10 mL (133 mg) […] mixed with 20 mL saline (Part A and B) • BUP50 arm: subjects randomized to this treatment arm received 20 mL (50 mg) 0.25% bupivacaine HCl mixed with 10 mL saline (Part A and B) Postsurgical pain for breakthrough pain. An unscheduled pain intensity assessment using the NRS (measured as “On a scale from 0 to 10, where 0 equals no pain and 10 equals the worst possible pain, how much pain are you experiencing in your operative foot right now?”) was to be completed immediately prior to administration of any breakthrough pain medication up to 96 h post-surgery. Medications were administered PRN; opioids were not to be given on a pre-determined schedule. […] All postsurgical analgesics administered, were to be recorded through hospital discharge. […]

[2] = system: subjects undergoing bunionectomy; assay: Safety: treatment-emergent adverse events, SAEs, AESIs, vital signs, EKG through POD14, clinical trial #1; format: in vivo, human
Description: Safety assessments included monitoring of AEs from the time of randomization through POD 14. Safety endpoints include incidence of treatment-emergent AEs and SAEs from the start of the nerve block procedure through POD 14.
Safety endpoints included incidence of treatment emergent adverse events (AEs) and serious adverse events (SAEs) from start of the nerve block procedure through POD14.
Adverse event verbatim terms are mapped to preferred terms and related system organ class using the Medical Dictionary for Regulatory Activities (MedDRA). Events that start prior to the start of study drug administration are identified in a by-subject listings. Incidence rates of TEAEs and the proportion of subject prematurely withdrawn from the study due to a TEAE is shown for each treatment arm. […] Incidence rates of SAEs is shown for each treatment arm.
An AE that occurred after administration of the study treatment was considered a treatment-emergent adverse event (TEAE). A continuous AE with varying grades of severity was to be recorded as 1 AE. The highest grade of severity experienced by that subject during the course of the continuous AE was to be recorded.
General guidelines are provided below: • Unrelated: A causal relationship between the study drug and the AE could be easily ruled out (e.g., based on the temporal sequence, absence of a reasonable pathophysiological mechanism, or direct evidence of actual cause). • Unlikely: A clinical event with a temporal relationship to study drug administration that made a causal relationship improbable and in which other drugs, chemicals, or underlying disease provided a plausible explanation. • Possible: A clinical event with a reasonable time sequence to administration of the study drug but that could also be explained by a concurrent disease or other drugs or chemicals. • Probable: A clinical event with a reasonable time sequence to administration of the study drug unlikely to be attributed to a concurrent disease or other drugs or chemicals and that followed a clinically reasonable response on withdrawal (dechallenge). • Definite: The pharmacological properties of the study drug(s) or of the substance class, and the course of the AE after dechallenge and, if applicable, after rechallenge, and/or specific test indicated involvement of the study drug(s) in the occurrence/worsening of the AE, and no indication of other causes existed.
Based on review of all peripheral nerve blocks, the following conditions were considered to be Adverse Events of Special Interest (AESIs) upon review of the AEs: • Falls • Persistent tingling • Persistent numbness • Persistent weakness • Hypersensitivity • Seizures • Tremors • Dizziness • Hematoma formation • Cardiovascular depression • Dyspnea • Cardiovascular arrest • Altered sensorium • Visual disturbances • Local anesthetic systemic toxicity
However, death, in and of itself, was not an AE; it was an outcome. The cause of death was the AE.

[3] = EXP266 Part A, EXP133 and BUP50 Part A+B

## CCCCN1CCCCC1C(=O)Nc1c(C)cccc1C (stereo not drawn) [BUP50, bupivacaine HCl]
[1]; 0 to 96 h post-surgery, EXP266 Part A, EXP133 and BUP50 Part A+B
  estimate of the proportion of opioid-free subjects: 9.8%
[1]; [3]
  proportion of subjects who received opioid breakthrough medication: 90.2%
[1]; post-surgery, Kaplan-Meier
  median time to first rescue medication: 20.68 h
[2]; EXP133 on POD2, BUP50 on POD1
  subjects with a clinically significant abnormal EKG finding: 1 subject
[2]; EXP266: hypertension and pyrexia, BUP50: atrioventricular block second degree, both discontinued
  subjects with treatment-emergent SAEs related to study drug: 1 subject
[2]; [3]
  proportion of subjects with a treatment-related TEAE: 2.4%
[2]; EXPAREL (266 mg), bupivacaine HCl
  subjects that had SAEs: 1 subject
[2]; human, in vivo
  AESI of atrioventricular block second degree considered possibly related to study drug: 1 subject
  AESI of muscular weakness considered possibly related to study drug: 1 subject
  TEAE constipation, subjects: 31.7%
  TEAE nausea, subjects: 23.2%
  number of subjects with ≥1 TEAE related to study drug: 2 subjects
  subjects who had ≥1 AESI: 4 subjects
  subjects with a moderate TEAE: 12.2%
[2]; through POD14
  proportion of subjects who reported TEAEs: 54.9%

From patent US11918565B1, “Treatment of post-operative pain via sciatic nerve block with sustained-release liposomal anesthetic compositions” (Pacira Pharmaceuticals, Inc., priority 2022, dated 2024)
